Assay results from patent KR20100022620A, “2-(2-옥소-2-페닐에틸설파닐)-벤즈이미다졸-4-카르복스아미드 유도체 또는 이의 약학적으로 허용가능한 염, 이의 제조방법 및 이를 유효성분으로 함유하는 폴리(adp-리보스)폴리머라제-1(parp-1)의 과활성에 의해 유발되는 질환의 예방 또는 치료용 약학적 조성물” (한국화학연구원, priority 2008, dated 2010).

Experiments:
[1] = target: T1, PARP-1 (Homo sapiens, UniProt P09874); test: PARP-1 inhibition (Universal Colorimetric PARP Assay-Histones kit); assay type: biochemical; conditions: for IC50: IC50 determined only for drugs inhibiting 50% or more at 10 μM, 0.01 ~10 μM, 0.5U PARP, room temperature, 1 h; for PARP-1 inhibitory effect (in words): judged from Table 2
T1 construct: purchased TREVIGEN 4671-096-K

[2] = test system: ischemic heart (허혈심장); test: Antiischemic (cardioprotective) effect in in vivo ischemic heart model of the rat; conditions: 1 mg/kg; for reduction of myocardial infarction rate / cardioprotective effect (in words): rat, versus negative control 58.6%; for myocardial infarction rate (IS/AAR, infarct size/area at risk): via femoral vein, male rat, 45 min occlusion, 90 min reperfusion, negative control 58.6%

T1 sequence (P09874 whole entry): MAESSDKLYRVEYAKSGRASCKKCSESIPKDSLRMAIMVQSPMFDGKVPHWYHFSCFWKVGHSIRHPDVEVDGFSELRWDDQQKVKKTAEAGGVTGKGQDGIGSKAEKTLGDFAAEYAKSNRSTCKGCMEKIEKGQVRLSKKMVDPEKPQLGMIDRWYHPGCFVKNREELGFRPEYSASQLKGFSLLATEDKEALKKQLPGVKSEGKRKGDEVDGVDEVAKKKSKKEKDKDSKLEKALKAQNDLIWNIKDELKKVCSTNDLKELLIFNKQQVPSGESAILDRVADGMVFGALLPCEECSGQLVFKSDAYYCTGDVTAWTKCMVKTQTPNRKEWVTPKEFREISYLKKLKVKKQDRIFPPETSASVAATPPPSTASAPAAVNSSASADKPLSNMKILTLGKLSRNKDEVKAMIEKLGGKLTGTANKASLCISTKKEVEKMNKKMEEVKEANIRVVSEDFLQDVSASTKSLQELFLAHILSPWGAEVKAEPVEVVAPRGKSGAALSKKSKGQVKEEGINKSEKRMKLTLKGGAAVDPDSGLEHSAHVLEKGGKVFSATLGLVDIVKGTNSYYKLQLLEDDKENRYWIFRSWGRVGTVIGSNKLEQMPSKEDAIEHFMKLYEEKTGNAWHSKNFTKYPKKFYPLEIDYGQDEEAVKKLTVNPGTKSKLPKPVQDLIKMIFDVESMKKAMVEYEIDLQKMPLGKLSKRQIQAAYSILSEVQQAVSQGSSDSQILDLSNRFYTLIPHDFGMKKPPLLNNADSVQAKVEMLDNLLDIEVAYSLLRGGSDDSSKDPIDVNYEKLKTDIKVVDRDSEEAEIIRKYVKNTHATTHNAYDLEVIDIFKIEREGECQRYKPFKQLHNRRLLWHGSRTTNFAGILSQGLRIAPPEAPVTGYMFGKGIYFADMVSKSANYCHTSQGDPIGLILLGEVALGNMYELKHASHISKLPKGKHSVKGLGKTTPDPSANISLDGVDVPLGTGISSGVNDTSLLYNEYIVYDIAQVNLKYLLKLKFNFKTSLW

Row | Structure (SMILES) | IC50 [1] | PARP-1 inhibitory effect (in words) [1] | reduction of myocardial infarction rate / cardioprotective effect (in words) [2] | myocardial infarction rate (IS/AAR, infarct size/area at risk) [2]
1 | NC(=O)c1cccc2[nH]c(SCC(=O)c3ccc(N4CCCCC4)cc3)nc12 [실시예 17, 2-[2-(3-피페리딘-1-일페닐)-2-옥소-에틸설파닐]-1H-벤즈이미다졸-4-카르복스아미드] | 1400 nM |  |  | 
2 | COc1ccccc1C(=O)CSc1nc2c(C(N)=O)cccc2[nH]1 [실시예 13, 2-[2-(2-메톡시페닐)-2-옥소-에틸설파닐]-1H-벤즈이미다졸-4-카르복스아미드] | 1120 nM |  |  | 
3 | Cc1cccc(C(=O)CSc2nc3c(C(N)=O)cccc3[nH]2)c1 [실시예 15, 2-[2-(3-메틸페닐)-2-옥소-에틸설파닐]-1H-벤즈이미다졸-4-카르복스아미드] | 1920 nM |  |  | 
4 | NC(=O)c1cccc2[nH]c(SCC(=O)c3cccc(F)c3)nc12 [실시예 8, 2-[2-(3-플루오로페닐)-2-옥소-에틸설파닐]-1H-벤즈이미다졸-4-카르복스아미드] | 960 nM | 매우 뛰어난 PARP-1 억제효과 |  | 
5 | NC(=O)c1cccc2[nH]c(SCC(=O)c3ccc(Cl)cc3Cl)nc12 [실시예 9, 2-[2-(2,4-디클로로페닐)-2-옥소-에틸설파닐]-1H-벤즈이미다졸-4-카르복스아미드] | 4750 nM |  |  | 
6 | NC(=O)c1cccc2[nH]c(SCC(=O)c3cccc(Br)c3)nc12 [실시예 11, 2-[2-(3-브로모페닐)-2-옥소-에틸설파닐]-1H-벤즈이미다졸-4-카르복스아미드] | 2230 nM |  |  | 
7 | NC(=O)c1cccc2[nH]c(SCC(=O)c3ccc(F)cc3)nc12 [실시예 4, 2-[2-(4-플루오로페닐)-2-옥소-에틸설파닐]-1H-벤즈이미다졸-4-카르복스아미드] | 940 nM | 매우 뛰어난 PARP-1 억제효과 |  | 
8 | NC(=O)c1cccc2[nH]c(SCC(=O)c3ccc(C=O)cc3)nc12 [실시예 21, 2-[2-(4-포르밀페닐)-2-옥소-에틸설파닐]-1H-벤즈이미다졸-4-카르복스아미드] | 750 nM | 매우 뛰어난 PARP-1 억제효과 |  | 
9 | NC(=O)c1cccc2[nH]c(SCC(=O)c3ccccc3)nc12 [실시예 20, 2-[2-페닐-2-옥소-에틸설파닐]-1H-벤즈이미다졸-4-카르복스아미드] | > 10000 nM |  |  | 
10 | NC(=O)c1cccc2[nH]c(SCC(=O)c3cccc(N4CCCC4)c3)nc12 [실시예 16, 2-[2-(3-피롤리딘-1-일페닐)-2-옥소-에틸설파닐]-1H-벤즈이미다졸-4-카르복스아미드] | 1200 nM |  |  | 
11 | COc1ccc(C(=O)CSc2nc3c(C(N)=O)cccc3[nH]2)cc1 [실시예 14, 2-[2-(4-메톡시페닐)-2-옥소-에틸설파닐]-1H-벤즈이미다졸-4-카르복스아미드] | 1940 nM |  |  | 
12 | NC(=O)c1cccc2[nH]c(SCC(=O)c3ccc(Br)cc3)nc12 [실시예 2, 2-[2-(4-브로모페닐)-2-옥소-에틸설파닐]-1H-벤즈이미다졸-4-카르복스아미드] | 710 nM | 매우 뛰어난 PARP-1 억제효과 | 음성대조군보다 유의성 있는 감소 | 44.1%
13 | COc1cccc(C(=O)CSc2nc3c(C(N)=O)cccc3[nH]2)c1 [실시예 7, 2-[2-(3-메톡시페닐)-2-옥소-에틸설파닐]-1H-벤즈이미다졸-4-카르복스아미드] | 2260 nM |  |  | 
14 | NC(=O)c1cccc(C(=O)CSc2nc3c(C(N)=O)cccc3[nH]2)c1 [실시예 18, 2-[2-(3-카르바모일페닐)-2-옥소-에틸설파닐]-1H-벤즈이미다졸-4-카르복스아미드] | 430 nM | 매우 뛰어난 PARP-1 억제효과 | 우수한 심장보호효과 | 37.5%
15 | NC(=O)c1ccc(C(=O)CSc2nc3c(C(N)=O)cccc3[nH]2)cc1 [실시예 19, 2-[2-(4-카르바모일페닐)-2-옥소-에틸설파닐]-1H-벤즈이미다졸-4-카르복스아미드] | 380 nM | 매우 뛰어난 PARP-1 억제효과 | 우수한 심장보호효과 | 36.3%
16 | NC(=O)c1cccc2[nH]c(SCC(=O)c3ccccc3F)nc12 [실시예 10, 2-[2-(2-플루오로페닐)-2-옥소-에틸설파닐]-1H-벤즈이미다졸-4-카르복스아미드] | 1220 nM |  |  | 
17 | Cc1ccc(C)c(C(=O)CSc2nc3c(C(N)=O)cccc3[nH]2)c1 [실시예 3, 2-[2-(2,5-디메틸페닐)-2-옥소-에틸설파닐]-1H-벤즈이미다졸-4-카르복스아미드] | 1330 nM |  |  | 
18 | NC(=O)c1cccc2[nH]c(SCC(=O)c3ccc(N4CCCC4)cc3)nc12 [실시예 6, 2-[2-(4-피롤리딘-1-일페닐)-2-옥소-에틸설파닐]-1H-벤즈이미다졸-4-카르복스아미드] | > 10000 nM |  |  | 
19 | Cc1ccccc1C(=O)CSc1nc2c(C(N)=O)cccc2[nH]1 [실시예 12, 2-[2-(2-메틸페닐)-2-옥소-에틸설파닐]-1H-벤즈이미다졸-4-카르복스아미드] | 960 nM | 매우 뛰어난 PARP-1 억제효과 |  | 
20 | CN(C)c1ccc(C(=O)CSc2nc3c(C(N)=O)cccc3[nH]2)cc1 [실시예 5, 2-[2-(4-디메틸아미노페닐)-2-옥소-에틸설파닐]-1H-벤즈이미다졸-4-카르복스아미드] | > 10000 nM |  |  | 
21 | NC(=O)c1cccc2[nH]c(SCC(=O)c3cc(Cl)ccc3Cl)nc12 [실시예 1, 2-[2-(2,5-디클로로페닐)-2-옥소-에틸설파닐]-1H-벤즈이미다졸-4-카르복스아미드] | 1050 nM |  |  | 
